{"source": "patent US8628771B2", "about": "“CA IX-specific inhibitors” (Institute of Virology Slovak Academy of Sciences, priority 2002, dated 2014)", "key": {"[1]": {"tested_on": "MDCK-CA IX cells", "experiment": "Extracellular pH (pHe) of sulfonamide-treated MDCK-CA IX cells", "format": "cell-based, canine", "conditions": "48 hours; for effect on extracellular acidification: hypoxia (2% O2); for effect on the normoxic pHe: normoxia", "procedure": "(§1) To maintain the standard conditions, the cells were always plated in 3 ml of culture medium at a density of 0.8-1×10^6 per 6 cm dish 24 hours before the transfer to hypoxia (2% O2 and 5% CO2 balanced with N2) generated in a Napco 7000 incubator. Parallel normoxic dishes were incubated in air with 5% CO2.\n(§2) Compound 6 sulfonamide [4-(2-aminoethyl)-benzenesulfonamide] was from Sigma-Aldrich. […] The sulfonamides were dissolved in PBS with 20% DMSO at 100 mM concentration and diluted in a culture medium to a required final concentration just before their addition to cells. The cells were incubated for 48 hours in hypoxia and normoxia, respectively, the pH of the culture medium was measured and the binding of the FITC-labeled Compound 92 to living cells, washed three times with PBS, was viewed by a Nikon E400 epifluorescence microscope."}, "[2]": {"conditions": "from reference [58]; cited from earlier work"}, "[3]": {"tested_on": "human red cells", "conditions": "pH 7.4"}, "[4]": {"molecular_target": "T1, bCA IV (Bos taurus, UniProt Q95323)", "T1 construct": "CA IV was isolated from bovine lung microsomes as described by Maren et al; from tissue; host or cells: bovine lung microsomes", "T1 sequence (Q95323 19-284)": "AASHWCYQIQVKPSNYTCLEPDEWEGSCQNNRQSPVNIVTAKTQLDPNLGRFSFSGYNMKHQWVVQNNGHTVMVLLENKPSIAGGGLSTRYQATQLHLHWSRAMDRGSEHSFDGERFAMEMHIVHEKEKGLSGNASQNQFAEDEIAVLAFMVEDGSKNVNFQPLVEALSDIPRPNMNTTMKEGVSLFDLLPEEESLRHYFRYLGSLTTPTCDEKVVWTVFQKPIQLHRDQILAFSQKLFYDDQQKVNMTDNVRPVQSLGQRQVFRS", "experiment": "CA esterase activity assay, isozyme bCA IV", "format": "biochemical, bovine"}, "[5]": {"molecular_target": "hCA IX (Homo sapiens, UniProt Q16790)", "experiment": "CA CO2 hydrase activity assay, tumor-associated isozyme hCA IX", "experimental": "An SX.18MV-R Applied Photophysics stopped-flow instrument has been used for assaying the CA CO2 hydration activity assays [44]. […] Inhibitor and enzyme solutions were preincubated together for 10 min at room temperature prior to assay, in order to allow for the formation of the E-I complex."}, "[6]": {"molecular_target": "T2, hCA II (Homo sapiens, UniProt P00918)", "T2 construct": "made in house; host or cells: Escherichia coli BL21 (DE3)", "experiment": "CA esterase activity assay, isozyme hCA II", "format": "biochemical", "conditions": "Table 2; human (cloned) isozymes; read-out: KI hCA II"}, "[7]": {"molecular_target": "T3, hCA I (Homo sapiens, UniProt P00915)", "T3 construct": "made in house; host or cells: Escherichia coli BL21 (DE3)", "T3 sequence (P00915 whole entry)": "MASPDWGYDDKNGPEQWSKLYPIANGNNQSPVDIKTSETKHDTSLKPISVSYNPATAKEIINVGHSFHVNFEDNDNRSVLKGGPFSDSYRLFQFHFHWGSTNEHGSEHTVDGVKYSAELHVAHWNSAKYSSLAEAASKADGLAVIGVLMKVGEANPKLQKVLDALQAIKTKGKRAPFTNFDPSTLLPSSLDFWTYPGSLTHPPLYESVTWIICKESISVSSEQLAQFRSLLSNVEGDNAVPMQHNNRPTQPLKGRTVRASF", "experiment": "CA esterase activity assay, isozyme hCA I", "format": "biochemical", "conditions": "Table 2; human (cloned) isozymes; read-out: KI hCA I", "experimental": "Human CA I and CA II cDNAs were expressed in Escherichia coli strain BL21 (DE3) from the plasmids pACA/hCA I and pACA/hCA II described by Lindskog's group [54].\nNon-enzymatic hydrolysis rates were always subtracted from the observed rates. […] Inhibitor and enzyme solutions were preincubated together for 10 min at room temperature prior to assay, in order to allow for the formation of the E-I complex. The inhibition constant KI was determined as described in references [44, 76]."}, "[8]": {"tested_on": "HeLa cells", "experiment": "Extracellular pH (pHe) of sulfonamide-treated HeLa cells", "format": "cell-based, human", "conditions": "hypoxic HeLa cells, 1 mM, 48 hours", "procedure": "as §1, §2"}, "[9]": {"tested_on": "SiHa cells", "experiment": "Extracellular pH (pHe) of sulfonamide-treated SiHa cells", "format": "cell-based, human", "conditions": "hypoxic SiHa cells, 1 mM, 48 hours", "procedure": "as §1, §2"}, "[10]": {"tested_on": "MDCK-CA IX cells", "experiment": "Binding of FITC-labeled sulfonamide to MDCK-CA IX cells (fluorescence microscopy)", "format": "cell-based, canine", "conditions": "48 hours", "procedure": "as §1, §2"}, "[11]": {"tested_on": "SiHa cells", "experiment": "Binding of FITC-labeled sulfonamide to SiHa cells (fluorescence microscopy)", "format": "cell-based, human", "conditions": "hypoxia versus normoxia, 48 hour incubation"}, "[12]": {"tested_on": "HeLa cells", "experiment": "Binding of FITC-labeled sulfonamide to HeLa cells (fluorescence microscopy)", "format": "cell-based, human", "conditions": "hypoxia versus normoxia, 48 hour incubation"}, "[13]": {"tested_on": "human red cells", "experiment": "Membrane permeance assay: ex vivo penetration through red blood cells", "conditions": "pH 7.4; for [sulfonamide] in red blood cells, HPLC: HPLC method; for [sulfonamide] in red blood cells, ES: electronic spectroscopic method; for [sulfonamide] in red blood cells, EI: enzymatic method"}}, "note": "Values joined by “and” are separate entries in the source; they are usually repeats but may differ in a detail not shown here. Equal entries are not always repeated. Where two headings read alike, the source gives them in different places."}
{"molecule": "NCCc1ccc(S(N)(=O)=O)cc1", "note": "[Compound 6, 4-(2-aminoethyl)-benzenesulfonamide]", "values": [{"measurement": "effect on extracellular acidification", "setting": "[1]", "result": "able to reduce the extracellular acidification"}, {"measurement": "effect on the normoxic pHe", "setting": "[1]", "result": "negligible"}]}
{"molecule": "Nc1ccc(S(=O)(=O)Nc2nnc(S(N)(=O)=O)s2)cc1", "note": "[Compound 15, 5-(4-aminobenzenesulfonylamino)-1,3,4-thiadiazole-2-sulfonamide]", "values": [{"measurement": "pKa for the second sulfonamido group", "setting": "[2]", "result": 3.2}, {"measurement": "incubation period to saturation of hCA I and hCA II in erythrocytes with inhibitor", "setting": "[3]; human, 2 mM", "result": 60, "unit": "min"}, {"measurement": "[sulfonamide] in red blood cells, EI", "setting": "[3]; human, 30 min, 2 mM", "result": 122, "unit": "µM"}, {"measurement": "[sulfonamide] in red blood cells, ES", "setting": "[3]; human, 30 min, 2 mM", "result": 127, "unit": "µM"}, {"measurement": "[sulfonamide] in red blood cells, HPLC", "setting": "[3]; human, 30 min, 2 mM", "result": 125, "unit": "µM"}, {"measurement": "[sulfonamide] in red blood cells, EI", "setting": "[3]; human, 60 min, 2 mM", "result": 158, "unit": "µM"}, {"measurement": "[sulfonamide] in red blood cells, ES", "setting": "[3]; human, 60 min, 2 mM", "result": 156, "unit": "µM"}, {"measurement": "[sulfonamide] in red blood cells, HPLC", "setting": "[3]; human, 60 min, 2 mM", "result": 154, "unit": "µM"}, {"measurement": "Ki", "setting": "[4]", "result": "~5", "unit": "nM"}, {"measurement": "Ki", "setting": "[4]; read-out: KI bCA IV", "result": "5 nM and 5.1 nM"}, {"measurement": "Ki", "setting": "[5]; KI against CA IX", "result": "14 to 50", "unit": "nM"}, {"measurement": "Ki", "setting": "[5]; read-out: KI against CA IX", "result": 38, "unit": "nM"}, {"measurement": "Ki", "setting": "[5]; read-out: KI hCA IX", "result": 38, "unit": "nM"}]}
{"molecule": "Cc1cc(C)[n+](Cc2ccc(S(N)(=O)=O)cc2)c(C)c1", "note": "[Compound 39]", "values": [{"measurement": "Ki", "setting": "[6]", "result": 50, "unit": "nM"}, {"measurement": "Ki", "setting": "[7]", "result": 7000, "unit": "nM"}, {"measurement": "effect on extracellular acidification", "setting": "[1]", "result": "able to reduce the extracellular acidification"}, {"measurement": "effect on the normoxic pHe", "setting": "[1]", "result": "negligible"}, {"measurement": "Ki", "setting": "[4]; Table 2, from bovine lung microsomes, read-out: KI bCA IV", "result": 92, "unit": "nM"}, {"measurement": "Ki", "setting": "[5]; read-out: KI hCA IX, Table 2, catalytic domain of the human, cloned isozyme", "result": 38, "unit": "nM"}]}
{"molecule": "NS(=O)(=O)c1ccc(CNC(=S)Nc2ccc3c(c2)C(=O)OC32c3ccc(O)cc3Oc3cc(O)ccc32)cc1", "note": "[Compound 92]", "values": [{"measurement": "effect on acidosis (pHe)", "setting": "[8]", "result": "partially reduced"}, {"measurement": "effect on acidosis (pHe)", "setting": "[9]", "result": "partially reduced"}, {"measurement": "effect on extracellular acidification", "setting": "[1]", "result": "able to reduce the extracellular acidification"}, {"measurement": "effect on the normoxic pHe", "setting": "[1]", "result": "negligible"}, {"measurement": "detection of FITC-labeled compound in cells", "setting": "[10]; hypoxic MDCK-CA IX cells", "result": "detected only in hypoxic MDCK-CA IX cells"}, {"measurement": "detection of FITC-labeled compound in cells", "setting": "[10]; normoxic MDCK-CA IX cells and mock-transfected controls", "result": "absent"}, {"measurement": "accumulation of FITC-labeled compound in cells", "setting": "[11]", "result": "accumulated in the hypoxic HeLa and SiHa cells"}, {"measurement": "accumulation of FITC-labeled compound in cells", "setting": "[12]", "result": "accumulated in the hypoxic HeLa and SiHa cells"}]}
{"molecule": "CC(=O)/N=c1/sc(S(N)(=O)=O)nn1C", "note": "[MZA, methazolamide]", "values": [{"measurement": "[sulfonamide] in red blood cells, HPLC", "setting": "[13]; t = 30 min, 2 mM sulfonamide in 5 mM Tris buffer", "result": 170, "unit": "µM"}, {"measurement": "[sulfonamide] in red blood cells, ES", "setting": "[13]; t = 30 min, 2 mM sulfonamide", "result": 169, "unit": "µM"}, {"measurement": "[sulfonamide] in red blood cells, EI", "setting": "[13]; t = 30 min, 2 mM sulfonamide", "result": 165, "unit": "µM"}, {"measurement": "[sulfonamide] in red blood cells, HPLC", "setting": "[13]; t = 60 min, 2 mM sulfonamide", "result": 168, "unit": "µM"}, {"measurement": "[sulfonamide] in red blood cells, ES", "setting": "[13]; t = 60 min, 2 mM sulfonamide", "result": 168, "unit": "µM"}, {"measurement": "[sulfonamide] in red blood cells, EI", "setting": "[13]; t = 60 min, 2 mM sulfonamide", "result": 167, "unit": "µM"}]}
{"molecule": "Benzolamide [reference compound]", "values": [{"measurement": "pKa for the second sulfonamido group", "setting": "[2]", "result": 3.2}, {"measurement": "incubation period to saturation of hCA I and hCA II in erythrocytes with inhibitor", "setting": "[3]", "result": 60, "unit": "min"}]}
